In PMC9403545, “Structure based design of effective HtpG-derived vaccine antigens against M. tuberculosis” (Frontiers in Molecular Biosciences, 2022) one finds Kd data, which are given here for 2 compounds.

This test concerns the target T1, HtpGMtb (Mycobacterium tuberculosis, UniProt P9WMJ7).
T1 construct: gene htpG; full-length wild type, recombinant in E. coli BL21(DE3), Ni-NTA and SEC, further ion exchange to remove nucleic acid; homodimer
Nature of the test: biochemical. It is filed as binding.

The structures appear in SMILES notation.

T1 sequence (P9WMJ7 whole entry): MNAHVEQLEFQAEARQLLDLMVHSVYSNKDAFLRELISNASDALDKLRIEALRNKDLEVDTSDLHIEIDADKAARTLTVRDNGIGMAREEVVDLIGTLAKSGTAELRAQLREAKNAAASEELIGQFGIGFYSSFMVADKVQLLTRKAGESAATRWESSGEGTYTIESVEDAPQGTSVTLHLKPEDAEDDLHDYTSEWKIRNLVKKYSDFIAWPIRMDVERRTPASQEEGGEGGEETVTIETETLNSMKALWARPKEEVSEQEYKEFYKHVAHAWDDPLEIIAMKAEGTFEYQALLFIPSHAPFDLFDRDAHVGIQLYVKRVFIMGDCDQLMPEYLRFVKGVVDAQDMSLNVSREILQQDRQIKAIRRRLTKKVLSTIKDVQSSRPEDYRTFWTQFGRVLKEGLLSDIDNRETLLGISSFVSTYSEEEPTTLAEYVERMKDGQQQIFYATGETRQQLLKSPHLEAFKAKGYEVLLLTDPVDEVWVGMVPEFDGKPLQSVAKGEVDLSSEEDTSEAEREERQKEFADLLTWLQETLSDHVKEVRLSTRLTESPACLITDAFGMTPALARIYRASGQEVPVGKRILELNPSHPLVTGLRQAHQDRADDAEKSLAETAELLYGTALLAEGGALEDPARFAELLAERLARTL

For orientation: Kd means the constant that tells how readily two partners part at equilibrium. `Nc1ncnc2c1ncn2[C@@H]1O[C@H](COP(=O)(O)OP(=O)(O)NP(=O)(O)O)[C@@H](O)[C@H]1O` [AMP-PNP] yielded a Kd of 45.4 µM.

In turn, `Nc1ncnc2c1ncn2[C@@H]1O[C@H](COP(=O)(O)OP(=O)(O)O)[C@@H](O)[C@H]1O` [ADP] displayed a Kd of 34 µM.
